Experimental data reported in ChEMBL document CHEMBL5252552, “Defined concatenated α6α1β3γ2 GABAA receptor constructs reveal dual action of pyrazoloquinolinone allosteric modulators” (Bioorg Med Chem, 2019).

Columns and labels:
[1] = biological target: T1, Gamma-aminobutyric acid receptor subunit alpha-1/alpha-6/beta-3/gamma-2 (Rattus norvegicus) (UniProt P18508+P30191+P62813+P63079); experiment: Positive allosteric modulation of rat recombinant GABAA alpha6beta3alpha1-gamma2beta3 receptor expressed in Xenopus laevis oocytes assessed as maximal efficacy at -80 mV holding potential at 10 uM in presence of GABA EC1 to 1.5 by two-electrode voltage-clamp assay; assay type: cell-based; conditions: Oocyte, filed as positive allosteric modulator
[2] = biological target: T1, Gamma-aminobutyric acid receptor subunit alpha-1/alpha-6/beta-3/gamma-2 (Rattus norvegicus); experiment: Positive allosteric modulation of rat recombinant GABAA alpha6beta3alpha1-gamma2beta3 receptor expressed in Xenopus laevis oocytes assessed as maximal efficacy at -80 mV holding potential at 10 nM in presence of GABA EC1 to 1.5 by two-electrode voltage-clamp assay; assay type: cell-based; conditions: Oocyte
[3] = biological target: T2, Gamma-aminobutyric acid receptor subunit alpha-1/beta-3/gamma-2 (Rattus norvegicus) (UniProt P18508+P62813+P63079); experiment: Positive allosteric modulation of rat recombinant GABAA alpha1beta3gamma2 receptor expressed in Xenopus laevis oocytes assessed as maximal efficacy at -80 mV holding potential at 3 uM in presence of GABA EC1 to 1.5 by two-electrode voltage-clamp assay; assay type: cell-based; conditions: Oocyte, filed as positive allosteric modulator
[4] = biological target: T2, Gamma-aminobutyric acid receptor subunit alpha-1/beta-3/gamma-2 (Rattus norvegicus); experiment: Positive allosteric modulation of rat recombinant GABAA alpha1beta3alpha1-gamma2beta3 receptor expressed in Xenopus laevis oocytes assessed as maximal efficacy at -80 mV holding potential at 100 nM in presence of GABA EC1 to 1.5 by two-electrode voltage-clamp assay; assay type: cell-based; conditions: Oocyte
[5] = biological target: T3, Gamma-aminobutyric acid receptor subunit alpha-6/beta-3/gamma-2 (Rattus norvegicus) (UniProt P18508+P30191+P63079); experiment: Positive allosteric modulation of rat recombinant GABAA alpha6beta3gamma2 receptor expressed in Xenopus laevis oocytes assessed as maximal efficacy at -80 mV holding potential at 10 nM in presence of GABA EC1 to 1.5 by two-electrode voltage-clamp assay; assay type: cell-based; conditions: Oocyte
[6] = biological target: T4, Gamma-aminobutyric acid receptor subunit alpha-6/beta-3/gamma-2 (Rattus norvegicus, UniProt P18508+P30191+P63079); experiment: (§1) Positive allosteric modulation of rat recombinant GABAA alpha6beta3alpha6-gamma2beta3 receptor expressed in Xenopus laevis oocytes assessed as increase in GABA-induced current amplitude at -80 mV holding potential under more potent phase in presence of GABA EC1 to 1.5 by two-electrode voltage-clamp assay; assay type: cell-based, Oocyte
[7] = biological target: T2, Gamma-aminobutyric acid receptor subunit alpha-1/beta-3/gamma-2 (Rattus norvegicus); experiment: Positive allosteric modulation of rat recombinant GABAA alpha1beta3gamma2 receptor expressed in Xenopus laevis oocytes assessed as maximal efficacy at -80 mV holding potential at 1 uM in presence of GABA EC1 to 1.5 by two-electrode voltage-clamp assay; assay type: cell-based; conditions: Oocyte
[8] = biological target: T1, Gamma-aminobutyric acid receptor subunit alpha-1/alpha-6/beta-3/gamma-2 (Rattus norvegicus); experiment: Positive allosteric modulation of rat recombinant GABAA gamma2beta3alpha1-beta3alpha6 receptor expressed in Xenopus laevis oocytes assessed as maximal efficacy at -80 mV holding potential at 10 nM in presence of GABA EC1 to 1.5 by two-electrode voltage-clamp assay; assay type: cell-based; conditions: Oocyte
[9] = biological target: T1, Gamma-aminobutyric acid receptor subunit alpha-1/alpha-6/beta-3/gamma-2 (Rattus norvegicus); experiment: Positive allosteric modulation of rat recombinant GABAA alpha6beta3alpha1-gamma2beta3 receptor expressed in Xenopus laevis oocytes assessed as maximal current at -80 mV holding potential under less potent phase in presence of GABA EC1 to 1.5 by two-electrode voltage-clamp assay relative to control; assay type: cell-based; conditions: Oocyte, filed as positive allosteric modulator
[10] = biological target: T3, Gamma-aminobutyric acid receptor subunit alpha-6/beta-3/gamma-2 (Rattus norvegicus); experiment: Positive allosteric modulation of rat recombinant GABAA alpha6beta3gamma2 receptor expressed in Xenopus laevis oocytes assessed as maximal current at -80 mV holding potential under less potent phase in presence of GABA EC1 to 1.5 by two-electrode voltage-clamp assay relative to control; assay type: cell-based; conditions: Oocyte, filed as positive allosteric modulator
[11] = biological target: T3, Gamma-aminobutyric acid receptor subunit alpha-6/beta-3/gamma-2 (Rattus norvegicus); experiment: Positive allosteric modulation of rat recombinant GABAA alpha6beta3alpha6-gamma2beta3 receptor expressed in Xenopus laevis oocytes assessed as maximal efficacy at -80 mV holding potential at 30 uM in presence of GABA EC1 to 1.5 by two-electrode voltage-clamp assay; assay type: cell-based; conditions: Oocyte, filed as positive allosteric modulator
[12] = biological target: T3, Gamma-aminobutyric acid receptor subunit alpha-6/beta-3/gamma-2 (Rattus norvegicus); experiment: Positive allosteric modulation of rat recombinant GABAA alpha6beta3alpha6-gamma2beta3 receptor expressed in Xenopus laevis oocytes assessed as maximal efficacy at -80 mV holding potential at 10 nM in presence of GABA EC1 to 1.5 by two-electrode voltage-clamp assay; assay type: cell-based; conditions: Oocyte
[13] = biological target: T1, Gamma-aminobutyric acid receptor subunit alpha-1/alpha-6/beta-3/gamma-2 (Rattus norvegicus); experiment: Positive allosteric modulation of rat recombinant GABAA alpha6beta3alpha1-gamma2beta3 receptor expressed in Xenopus laevis oocytes assessed as maximal efficacy at -80 mV holding potential at 30 uM in presence of GABA EC1 to 1.5 by two-electrode voltage-clamp assay; assay type: cell-based; conditions: Oocyte, filed as positive allosteric modulator
[14] = biological target: T1, Gamma-aminobutyric acid receptor subunit alpha-1/alpha-6/beta-3/gamma-2 (Rattus norvegicus); experiment: Positive allosteric modulation of rat recombinant GABAA alpha6beta3alpha1-gamma2beta3 receptor expressed in Xenopus laevis oocytes assessed as maximal efficacy at -80 mV holding potential at 3 uM in presence of GABA EC1 to 1.5 by two-electrode voltage-clamp assay; assay type: cell-based; conditions: Oocyte, filed as positive allosteric modulator
[15] = biological target: T1, Gamma-aminobutyric acid receptor subunit alpha-1/alpha-6/beta-3/gamma-2 (Rattus norvegicus); experiment: Positive allosteric modulation of rat recombinant GABAA gamma2beta3alpha1-beta3alpha6 receptor expressed in Xenopus laevis oocytes assessed as maximal efficacy at -80 mV holding potential at 30 nM in presence of GABA EC1 to 1.5 by two-electrode voltage-clamp assay; assay type: cell-based; conditions: Oocyte
[16] = biological target: T2, Gamma-aminobutyric acid receptor subunit alpha-1/beta-3/gamma-2 (Rattus norvegicus); experiment: Positive allosteric modulation of rat recombinant GABAA alpha1beta3alpha1-gamma2beta3 receptor expressed in Xenopus laevis oocytes assessed as maximal efficacy at -80 mV holding potential at 10 uM in presence of GABA EC1 to 1.5 by two-electrode voltage-clamp assay; assay type: cell-based; conditions: Oocyte, filed as positive allosteric modulator
[17] = biological target: Gamma-aminobutyric acid receptor subunit alpha-1/alpha-6/beta-3/gamma-2 (Rattus norvegicus, UniProt P18508+P30191+P62813+P63079); experiment: as §1, with “gamma2beta3alpha1-beta3alpha6” for “alpha6beta3alpha6-gamma2beta3”, “less” for “more”; assay type: cell-based, Oocyte
[18] = biological target: T3, Gamma-aminobutyric acid receptor subunit alpha-6/beta-3/gamma-2 (Rattus norvegicus); experiment: Positive allosteric modulation of rat recombinant GABAA alpha6beta3alpha6-gamma2beta3 receptor expressed in Xenopus laevis oocytes assessed as maximal efficacy at -80 mV holding potential at 1 uM in presence of GABA EC1 to 1.5 by two-electrode voltage-clamp assay; assay type: cell-based; conditions: Oocyte, filed as positive allosteric modulator
[19] = biological target: T2, Gamma-aminobutyric acid receptor subunit alpha-1/beta-3/gamma-2 (Rattus norvegicus); experiment: Positive allosteric modulation of rat recombinant GABAA alpha1beta3gamma2 receptor expressed in Xenopus laevis oocytes assessed as maximal efficacy at -80 mV holding potential at 30 nM in presence of GABA EC1 to 1.5 by two-electrode voltage-clamp assay; assay type: cell-based; conditions: Oocyte
[20] = biological target: T3, Gamma-aminobutyric acid receptor subunit alpha-6/beta-3/gamma-2 (Rattus norvegicus); experiment: Positive allosteric modulation of rat recombinant GABAA alpha6beta3gamma2 receptor expressed in Xenopus laevis oocytes assessed as maximal efficacy at -80 mV holding potential at 3 uM in presence of GABA EC1 to 1.5 by two-electrode voltage-clamp assay; assay type: cell-based; conditions: Oocyte, filed as positive allosteric modulator
[21] = biological target: T3, Gamma-aminobutyric acid receptor subunit alpha-6/beta-3/gamma-2 (Rattus norvegicus); experiment: Positive allosteric modulation of rat recombinant GABAA alpha6beta3gamma2 receptor expressed in Xenopus laevis oocytes assessed as maximal efficacy at -80 mV holding potential at 300 nM in presence of GABA EC1 to 1.5 by two-electrode voltage-clamp assay; assay type: cell-based; conditions: Oocyte, filed as positive allosteric modulator
[22] = biological target: T3, Gamma-aminobutyric acid receptor subunit alpha-6/beta-3/gamma-2 (Rattus norvegicus); experiment: Positive allosteric modulation of rat recombinant GABAA alpha6beta3gamma2 receptor expressed in Xenopus laevis oocytes assessed as maximal efficacy at -80 mV holding potential at 3 nM in presence of GABA EC1 to 1.5 by two-electrode voltage-clamp assay; assay type: cell-based; conditions: Oocyte
[23] = biological target: T4, Gamma-aminobutyric acid receptor subunit alpha-6/beta-3/gamma-2; experiment: Positive allosteric modulation of rat recombinant GABAA alpha6beta3gamma2 receptor expressed in Xenopus laevis oocytes assessed as increase in GABA-induced current amplitude at -80 mV holding potential under less potent phase in presence of GABA EC1 to 1.5 by two-electrode voltage-clamp assay; assay type: cell-based, Oocyte

T4 sequence (P18508 whole entry): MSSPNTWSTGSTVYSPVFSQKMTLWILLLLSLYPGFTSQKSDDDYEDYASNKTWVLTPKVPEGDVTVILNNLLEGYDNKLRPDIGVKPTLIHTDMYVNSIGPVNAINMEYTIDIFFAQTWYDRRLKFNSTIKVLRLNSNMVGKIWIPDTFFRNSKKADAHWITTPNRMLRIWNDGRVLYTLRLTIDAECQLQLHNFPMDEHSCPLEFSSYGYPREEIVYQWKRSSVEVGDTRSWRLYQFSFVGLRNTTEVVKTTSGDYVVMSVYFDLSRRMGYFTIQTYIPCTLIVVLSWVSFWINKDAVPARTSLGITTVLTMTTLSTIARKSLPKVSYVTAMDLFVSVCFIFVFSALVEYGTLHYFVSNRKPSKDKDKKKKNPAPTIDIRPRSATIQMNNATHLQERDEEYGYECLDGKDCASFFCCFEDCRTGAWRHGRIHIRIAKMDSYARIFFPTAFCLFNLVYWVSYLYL
T4 sequence (P30191 whole entry): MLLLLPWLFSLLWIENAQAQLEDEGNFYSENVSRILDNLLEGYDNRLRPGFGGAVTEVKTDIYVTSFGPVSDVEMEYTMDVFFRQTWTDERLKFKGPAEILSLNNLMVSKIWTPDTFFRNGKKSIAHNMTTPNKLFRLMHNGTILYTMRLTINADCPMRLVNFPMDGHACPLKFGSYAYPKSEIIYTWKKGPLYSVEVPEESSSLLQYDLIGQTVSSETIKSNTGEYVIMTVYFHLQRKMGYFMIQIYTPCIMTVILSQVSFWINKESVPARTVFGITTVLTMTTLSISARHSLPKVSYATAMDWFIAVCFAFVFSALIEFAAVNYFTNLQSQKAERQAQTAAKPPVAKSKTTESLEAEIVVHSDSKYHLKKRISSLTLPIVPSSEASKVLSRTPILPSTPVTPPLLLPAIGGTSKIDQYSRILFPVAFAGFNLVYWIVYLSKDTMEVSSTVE
T4 sequence (P63079 whole entry): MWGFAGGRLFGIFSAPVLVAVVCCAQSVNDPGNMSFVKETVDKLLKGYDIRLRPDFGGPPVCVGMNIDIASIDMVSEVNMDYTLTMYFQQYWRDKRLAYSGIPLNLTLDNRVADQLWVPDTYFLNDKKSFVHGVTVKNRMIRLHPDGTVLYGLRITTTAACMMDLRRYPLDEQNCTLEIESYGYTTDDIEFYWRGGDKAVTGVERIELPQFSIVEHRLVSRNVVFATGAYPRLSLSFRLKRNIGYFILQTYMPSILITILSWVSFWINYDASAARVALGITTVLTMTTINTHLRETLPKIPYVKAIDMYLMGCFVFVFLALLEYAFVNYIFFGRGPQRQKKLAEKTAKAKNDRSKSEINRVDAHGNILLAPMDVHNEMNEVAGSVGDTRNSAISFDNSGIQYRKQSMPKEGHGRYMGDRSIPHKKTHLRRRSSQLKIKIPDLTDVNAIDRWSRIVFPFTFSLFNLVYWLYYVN
Chain of Gamma-aminobutyric acid receptor subunit alpha-1/alpha-6/beta-3/gamma-2 (P18508 whole entry): as the sequence (P18508 whole entry) above
Chain of Gamma-aminobutyric acid receptor subunit alpha-1/alpha-6/beta-3/gamma-2 (P30191 whole entry): as the sequence (P30191 whole entry) above
Chain of Gamma-aminobutyric acid receptor subunit alpha-1/alpha-6/beta-3/gamma-2 (P62813 whole entry): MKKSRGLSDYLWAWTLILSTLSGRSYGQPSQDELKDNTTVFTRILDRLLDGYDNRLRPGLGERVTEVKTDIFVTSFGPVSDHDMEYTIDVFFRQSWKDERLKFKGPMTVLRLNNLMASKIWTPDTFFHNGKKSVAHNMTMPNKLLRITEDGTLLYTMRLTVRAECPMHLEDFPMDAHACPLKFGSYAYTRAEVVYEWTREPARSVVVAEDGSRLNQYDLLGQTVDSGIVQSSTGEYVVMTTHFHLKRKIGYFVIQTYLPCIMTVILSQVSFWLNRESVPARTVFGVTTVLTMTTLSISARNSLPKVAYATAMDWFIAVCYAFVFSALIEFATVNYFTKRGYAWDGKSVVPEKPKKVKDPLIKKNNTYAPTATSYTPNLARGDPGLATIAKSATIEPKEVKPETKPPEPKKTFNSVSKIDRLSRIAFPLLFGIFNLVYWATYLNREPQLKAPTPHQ
Chain of Gamma-aminobutyric acid receptor subunit alpha-1/alpha-6/beta-3/gamma-2 (P63079 whole entry): as the sequence (P63079 whole entry) above

Efficacy [1]: 662%
Efficacy [2]: 2%
Efficacy [3]: 54%
Efficacy [4]: 8%
Efficacy [5]: 24%
EC50 [6]: 0.009 µM
Efficacy [7]: 18%
Efficacy [8]: 23%
%max [9]: 1060%
%max [10]: 580%
Efficacy [11]: 570%
Efficacy [12]: 33%
Efficacy [13]: 838%
Efficacy [14]: 363%
Efficacy [15]: 31%
Efficacy [16]: 157%
EC50 [17]: 36 µM
Efficacy [18]: 196%
Efficacy [19]: 2%
Efficacy [20]: 377%
Efficacy [21]: 121%
Efficacy [22]: 23%
EC50 [23]: 11 µM
Structure (SMILES): COc1ccc(-n2nc3c4ccc(Br)cc4[nH]cc-3c2=O)cc1
